# In PMC4657098, “A Review of the Updated Pharmacophore for the Alpha 5 GABA(A) Benzodiazepine Receptor Model” (International Journal of Medicinal Chemistry, 2015):
# Legend:
# Parameters in all cases: expressed in transfected cells
# α3β3γ2 GABAA/BzR = α3β3γ2 GABAA/BzR (Homo sapiens, UniProt P18507+P34903); assay: Competition binding to HEK cell membranes, α3β3γ2; settings: read-out: Ki α3
# α1β3γ2 GABAA/BzR = α1β3γ2 GABAA/BzR (Homo sapiens, UniProt P14867+P18507); assay: Competition binding to HEK cell membranes, α1β3γ2; settings: read-out: Ki α1
# α6β3γ2 GABAA/BzR = α6β3γ2 GABAA/BzR (Homo sapiens, UniProt P18507+Q16445); assay: Competition binding to HEK cell membranes, α6β3γ2; settings: read-out: Ki α6
# α5β3γ2 GABAA/BzR = α5β3γ2 GABAA/BzR (Homo sapiens, UniProt P18507+P31644); assay: Competition binding to HEK cell membranes, α5β3γ2; settings: read-out: Ki α5
# α2β3γ2 GABAA/BzR = α2β3γ2 GABAA/BzR (Homo sapiens, UniProt P18507+P47869); assay: Competition binding to HEK cell membranes, α2β3γ2; settings: read-out: Ki α2
SMILES,Ki (α3β3γ2 GABAA/BzR),Ki (α1β3γ2 GABAA/BzR),Ki (α6β3γ2 GABAA/BzR),Ki (α5β3γ2 GABAA/BzR),Ki (α2β3γ2 GABAA/BzR)
CN1Cc2c(C(=O)OC(C)(C)C)ncn2-c2ccc(O)cc2C1=O [DM-239],0.53 nM,1.5 nM,6.89 nM,0.14 nM,–
CC(C)(C)OC(=O)c1cc2c(cn1)[nH]c1ccccc12 [SH-TSC-2],0.035 nM,–,–,69.3 nM,0.0419 nM
CCOC(=O)c1ncn2c1CN=C(c1ccccc1F)c1cc(Br)ccc1-2 [JYI-32],–,3.07 nM,52.2 nM,2.92 nM,4.96 nM
C#Cc1ccc2c(c1)C(=O)N1CCC[C@H]1c1c(C(=O)OCC(F)(F)F)ncn1-2 [JYI-15],–,205 nM,22 nM,4.8 nM,812 nM
O=C1CN=C(c2ccccc2F)c2cc(Br)ccc2N1 [JYI-42],0.278 nM,0.257 nM,–,0.256 nM,0.146 nM
COc1ccc(-n2nc3c4cc(Cl)ccc4[nH]cc-3c2=O)cc1 [PZII-028],0.2 nM,0.2 nM,1.9 nM,0.32 nM,–
C#Cc1ccc2c(c1)C(c1ccccc1)=NCC(NC)=N2 [Hz148],–,11 nM,5000 nM,256 nM,5000 nM
C#Cc1ccc2c(c1)C(=O)N1CCCC1c1c(C(=O)OC(C)(C)C)ncn1-2 (centres unmarked) [JYI-03],–,185 nM,3.34 nM,0.954 nM,107 nM
CC(C)(C)OC(=O)c1ncn2c1C1CCCN1C(=O)c1cc(Br)ccc1-2 (centres unmarked) [JYI-01],96 nM,59.2 nM,2.88 nM,10.6 nM,–
C#Cc1ccc2c(c1)C(c1ccccc1F)=NCc1c(C(=O)NC)ncn1-2 [HJ-I-037],28.3 nM,15.1 nM,–,0.818 nM,8.13 nM
Cc1nnc2n1-c1ccc(Br)cc1C(c1ccccc1F)=NC2 [JYI-57],0.131 nM,0.076 nM,–,0.036 nM,0.076 nM
C#Cc1ccc2[nH]c3cnc(C(=O)OC(C)(C)C)cc3c2c1 [WY-TSC-4],1.63 nM,–,–,51 nM,–
C#Cc1ccc2c(c1)C(c1cccs1)=NCC(=O)N2 [JC208],–,22.4 nM,–,5.04 nM,18.9 nM
O=C1CN=C(c2ccccc2Cl)c2cc(Br)ccc2N1 [DM-II-72],–,–,–,2.02 nM,1.37 nM
Cc1nnc2n1-c1ccc(Br)cc1C(c1ccccc1)=NC2 [XLi268],–,2.81 nM,–,0.624 nM,0.686 nM
C#Cc1ccc2c(c1)C(c1ccccc1Cl)=NCC(=O)N2C [XLi352],–,1.56 nM,–,1.96 nM,0.991 nM
O=[N+]([O-])c1ccc2[nH]c3cnc([N+](=O)[O-])cc3c2c1 [EDC-I-071],–,12.9 nM,5000 nM,314 nM,83.1 nM
COCc1ncn2c1CN(C)C(=O)c1cc(Cl)ccc1-2 [SH-TSC-1],328 nM,362 nM,–,6.18 nM,180 nM
C#Cc1ccc2c(c1)C(c1ccccc1F)=NCC(=O)N2 [JYI-60 (C17H11N2OF)],4.3 nM,–,5000 nM,1.7 nM,–
O=C(O)c1ncn2c1CN=C(c1ccccc1)c1cc(Br)ccc1-2 [DM-III-01],–,–,–,4.73 nM,12 nM
"COc1ccc(-n2nc3c4ccccc4[nH]cc-3c2=O)cc1 [CGS9895, reference compound]",–,0.21 nM,9.3 nM,–,–
C#Cc1ccc2c(c1)C(c1cccs1)=NCC(=O)N2C [JC222],–,86.7 nM,–,17.6 nM,45.1 nM
